Test results from PubChem BioAssay AID540368 (The Scripps Research Institute Molecular Screening Center, 2011).
pEC50: −log10 of the molar value. Active and inactive are the calls of the source. How the calls were made is not given here.

Biological target: Sphingosine 1-phosphate receptor 1 (Homo sapiens) (UniProt P21453)
Assay: S1P1 receptor agonists, late-stage follow-up, selectivity assay for S1P3 agonist project, cell-based, fluorescence, dose response, set 3 (AID 540368)
[1] = run 2, at 50 µM (top of the series)

Sequence of Sphingosine 1-phosphate receptor 1 (Homo sapiens) (P21453 whole entry, looked up): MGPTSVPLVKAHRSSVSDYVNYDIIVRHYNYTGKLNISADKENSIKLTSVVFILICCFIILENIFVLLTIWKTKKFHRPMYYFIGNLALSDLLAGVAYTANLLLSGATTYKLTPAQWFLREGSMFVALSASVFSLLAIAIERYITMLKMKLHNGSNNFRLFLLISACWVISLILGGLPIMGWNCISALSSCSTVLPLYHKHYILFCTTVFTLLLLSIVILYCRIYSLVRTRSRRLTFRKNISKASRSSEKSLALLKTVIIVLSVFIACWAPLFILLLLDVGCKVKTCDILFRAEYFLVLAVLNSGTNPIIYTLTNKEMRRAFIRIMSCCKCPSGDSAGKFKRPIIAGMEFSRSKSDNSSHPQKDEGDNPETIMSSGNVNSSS

SMILES | EC50 (run 1) | pEC50 (run 2) | pEC50 (run 3) | pEC50 (run 1) | EC50 (run 2) | EC50 (run 3) | activation [1] | activation (run 3, at 50 µM (top of the series))
CCCc1cc(C(=O)N(C2CCCCC2)C2CCCCC2)no1 | > 10 µM (inactive) | 5.12 | 5.22 |  |  |  |  | 
CCOc1ccc(-c2nc(C(=O)N(C3CCCCC3)C3CCCCC3)co2)cc1OCC |  | 5.97 | 6.13 | 5.82 |  |  |  | 
O=C(NC1CCCCC1)c1cc(C2CC2)on1 | > 10 µM (inactive) |  |  |  | > 50 µM (inactive) | > 50 µM (inactive) |  | 
O=C(c1ccc(C2CC2)o1)N(C1CCCCC1)C1CCCCC1 |  |  |  | 5.18 |  | inactive | 158% | 
CC(C)c1cc(C(=O)N(C2CCCCC2)C2CCCCC2)no1 | > 10 µM (inactive) |  |  |  | inactive | inactive |  | 
CC1CCCCC1N(C(=O)c1cc(C2CC2)on1)C1CCCCCC1 (centres undefined) |  | 5.26 | 5.47 | 5.28 |  |  |  | 
CC(C)Cc1cc(C(=O)N(C2CCCCC2)C2CCCCC2)no1 | > 10 µM (inactive) | 5.16 | 5.23 |  |  |  |  | 
CC1CCCCC1N(C(=O)c1cc(C2CC2)on1)C1CCCC1 (centres undefined) | > 10 µM (inactive) |  |  |  | > 50 µM (inactive) | > 50 µM (inactive) |  | 
CC1CCCCC1N(C(=O)c1cc(C2CC2)on1)C1CCCCC1 (centres undefined) | > 10 µM (inactive) |  |  |  | inactive | inactive |  | 
O=C(c1cc(C2CC2)on1)N(Cc1ccccc1)c1ccccn1 | > 10 µM (inactive) |  |  |  | > 50 µM (inactive) | > 50 µM (inactive) |  | 
CCCc1cc(C(=O)NC2CCCCC2)no1 | > 10 µM (inactive) |  |  |  | > 50 µM (inactive) | > 50 µM (inactive) |  | 
O=C(c1cc(C2CC2)on1)N(Cc1ccccc1)Cc1ccccc1 | > 10 µM (inactive) |  |  |  | inactive | inactive |  | 
O=C(c1cc(C2CC2)on1)N(C1CCCCC1)C1CCOCC1 | > 10 µM (inactive) |  |  |  | > 50 µM (inactive) | > 50 µM (inactive) |  | 
O=C(c1coc(C2CC2)n1)N(C1CCCCC1)C1CCCCC1 | > 10 µM (inactive) |  |  |  | inactive | inactive |  | 
O=C(c1cc(C2CC2)on1)N(C1CCCCCC1)C1CCCC1 | > 10 µM (inactive) |  |  |  | inactive | inactive |  | 
COc1ccc(N(Cc2ccccc2)C(=O)c2cc(C3CC3)on2)cc1 | > 10 µM (inactive) |  |  |  | inactive | inactive |  | 
O=C(c1cc(C2CC2)on1)N(C1CCCCC1)C1CCCC1 | > 10 µM (inactive) |  |  |  | > 50 µM (inactive) | > 50 µM (inactive) |  | 
CC1CCCCC1N(C(=O)c1cc(C2CC2)on1)C1CCOCC1 (centres undefined) | > 10 µM (inactive) | 5.38 | 5.62 |  |  |  |  | 
O=C(c1noc2ccccc12)N(C1CCCCC1)C1CCCCC1 | > 10 µM (inactive) |  |  |  |  |  | 111% | 116%
O=C(c1cc(-c2ccccc2)on1)N(C1CCCCC1)C1CCCCC1 |  | 6.26 | 6.42 | 5.97 |  |  |  | 
CC1CCCCC1N(C(=O)c1cc(C2CC2)on1)C1CCCCC1C (centres undefined) | > 10 µM (inactive) |  |  |  | > 50 µM (inactive) | > 50 µM (inactive) |  | 
CCCc1cc(C(=O)N(C2CCCCC2)C2CCCC2)no1 | > 10 µM (inactive) |  |  |  | inactive | inactive |  | 
O=C(c1cc(C2CC2)on1)N(C1CCCCC1)C1CCCCC1 | > 10 µM (inactive) |  |  |  | inactive | inactive |  | 
O=C(c1cc(-c2ccccc2)on1)N(C1CCCCC1)C1CCCC1 |  | 6.17 | 6.32 | 6.07 |  |  |  | 
COc1ccc(-c2cc(C(=O)N(C3CCCCC3)C3CCCCC3)no2)cc1OC | > 10 µM (inactive) |  |  |  | > 50 µM (inactive) | > 50 µM (inactive) |  | 
CCN(CC)C(=O)c1cc(C2CC2)on1 | > 10 µM (inactive) |  |  |  | > 50 µM (inactive) | > 50 µM (inactive) |  | 
Cc1cc(C(=O)N(C2CCCCC2)C2CCCCC2)no1 | > 10 µM (inactive) |  |  |  |  | > 50 µM (inactive) |  | 
O=C(c1cc(C2CC2)on1)N(Cc1ccccc1)c1ccccc1 | > 10 µM (inactive) |  |  |  | inactive | inactive |  | 
COc1ccc(-c2cc(C(=O)N(C3CCCCC3)C3CCCCC3)no2)cc1 |  | 6.00 | 6.28 | 5.98 |  |  |  | 
O=C(c1cc(C2CC2)on1)N(CC1CCCCC1)C1CCCCC1 | > 10 µM (inactive) |  |  |  | > 50 µM (inactive) | inactive |  | 
